Measurements reported in US20110190155A1 (Korea Institute of Science and Technology, priority 2007, published 2011).

Key:
in vitro = assay type: cell-based; conditions: human
Experimental: BEAS-2B (CRL-9609, ATCC, USA), a human bronchial epithelial cell line, was cultured in a T 75 flask containing DMEM (Gibco-BRL, USA) supplemented with 10% FBS at the concentration of 5×10^5 cells/ml. […] The concentration of the vehicle was less than 0.1% in every experiment.
MTT assay with the BEAS-2B cell line was performed according to the method of Mossman et al (J. Immunol. Methods, 65, 55-63, 1983). […] 48 hours later, MTT (3-[4,5-dimethylthiazol-2-yl]-2,5-diphenyltetra zolium bromide) 5 mg/ml was added at the concentration of 5 mg/ml, followed by culture at 37° C. for 3 hours. Then, medium was eliminated and generated formazan crystal was dissolved in 500 μl of DMSO. The solution was aliquoted in a 96 well-plate and OD540 was measured.

[1] = cited from earlier work
[2] = patients treated with amiodarone

Experimental for BEAS-2B cells: Total RNA was extracted from the cells using trizol reagent (Invitrogen life technologies, USA) according to the manufacturer's instruction and the extracted RNA was purified by using RNeasy mini kit (Qiagen, USA). The genomic DNA was eliminated during the purification of RNA using RNase-free DNase set (Qiagen, USA). The total RNA was quantified by spectrophotometer and purity was measured by Agilent 2100 Bioanalyzer (Agilent Technologies, USA).
30 μg of the total RNA and 2 μg (1 μg/μl) of oligo (dT) primer were mixed, followed by reaction for 10 minutes at 65° C. Then, the reaction mixture was put in ice, followed by annealing.
At this time, the two samples were mixed and purified by Microcon YM-30 column (Millipore, USA).
Hybridization and washing were performed according to the instruction of GeneCneck Co., Ltd. Hybridization was performed in a 62° C. oven for 12 hours. At this time, 44 k whole human genome oligo microarray (Agilent, USA) was used as a DNA microarray chip. […]
Scanning of the hybridized images on the slide was performed by using Genepix 4000B (Axon Instruments, USA). Fluorescence images of the chip washed to eliminate non-binding genes were obtained by laser fluorescence scanner. […] The scanned images were analyzed by GenePix 4.1 software (Axon Instruments, USA) to calculate the gene expression rate.

IC20 at 48 h (in vitro): 29.4 µM
Structure (SMILES): CCCCc1oc2ccccc2c1C(=O)c1cc(I)c(OCCN(CC)CC)c(I)c1 [amiodarone]
genes identified to be up-regulated (BEAS-2B cells; 44 genes out of 44,290 genes, Cy5/Cy3 more than 2.0 fold): 0.1% | genes identified to be down-regulated (BEAS-2B cells; 45 genes out of 44,290 genes, Cy5/Cy3 less than 0.5 fold): 0.10% | patients exhibiting boredom, fatigue, tremor, walking difficulty and peripheral neuropathy [1, 2]: 20-40% | patients showing gastrointestinal disorder, nausea, vomiting, constipation and loss of appetite [1, 2]: Approximately 25% | patients treated with amiodarone exhibiting side effects ([1]; patients): approximately 50%
